Measured values taken from the supplement of paper PMC11061612.

Key:
Assay in all cases: Bliss excess, mean over the matrix (fraction); higher = more synergy
[1] = tested on: DMS-114 (Small Cell Lung Carcinoma)
Method in brief: (§1)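 Bliss excess equals the observed combination effect minus the expected value EA + EB − EA·EB, where EA and EB are the effects of each agent alone. Combination Emax is the second-highest inhibition within the matrix. Inhibition was scaled from CellTiter-Glo 2.0 luminescence, with 0 set by vehicle wells and 1 by blank wells, after 72 hours of two-drug dosing of cells plated in 1536-well plates.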

[2] = tested on: RPMI-8226 (Plasma Cell Myeloma)
Method in brief: as §1

SJSA-1 (Osteosarcoma) = tested on: SJSA-1 (Osteosarcoma)
Method in brief: as §1

[3] = tested on: MOLM-13 (Acute Myeloid Leukemia)
Method in brief: as §1

[4] = tested on: JHH-4 (Hepatocellular Carcinoma)
Method in brief: as §1

[5] = tested on: KU812 (Chronic Myelogenous Leukemia)
Method in brief: as §1

[6] = tested on: DAN-G (Pancreatic Carcinoma)
Method in brief: as §1

[7] = tested on: KYSE-270 (Esophageal Squamous Cell Carcinoma)
Method in brief: as §1

[8] = tested on: MOG-G-CCM (Low Grade Glioma)
Method in brief: as §1

[9] = tested on: COR-L279 (Small Cell Lung Carcinoma)
Method in brief: as §1

[10] = tested on: HCC1419 (Breast Carcinoma)
Method in brief: as §1

[11] = tested on: NCCIT (Other Solid Carcinomas)
Method in brief: as §1

[12] = tested on: SU-DHL-5 (B-Cell Non-Hodgkin's Lymphoma)
Method in brief: as §1

[13] = tested on: H9 (T-Cell Non-Hodgkin's Lymphoma)
Method in brief: as §1

[14] = tested on: MN-60 (B-Lymphoblastic Leukemia)
Method in brief: as §1

RD (Rhabdomyosarcoma) = tested on: RD (Rhabdomyosarcoma)
Method in brief: as §1

[15] = tested on: VMRC-RCZ (Kidney Carcinoma)
Method in brief: as §1

[16] = tested on: T-T (Esophageal Squamous Cell Carcinoma)
Method in brief: as §1

M059J (Glioblastoma) = tested on: M059J (Glioblastoma)
Method in brief: as §1

[17] = tested on: SK-GT-4 (Esophageal Adenocarcinoma)
Method in brief: as §1

Row | SMILES | Bliss excess [1] | Bliss excess [2] | Bliss excess (SJSA-1 (Osteosarcoma)) | Bliss excess [3] | Bliss excess [4] | Bliss excess [5] | Bliss excess [6] | Bliss excess [7] | Bliss excess [8] | Bliss excess [9] | Bliss excess [10] | Bliss excess [11] | Bliss excess [12] | Bliss excess [13] | Bliss excess [14] | Bliss excess (RD (Rhabdomyosarcoma)) | Bliss excess [15] | Bliss excess [16] | Bliss excess (M059J (Glioblastoma)) | Bliss excess [17]
1 | COc1cccc2c1C(=O)c1c(O)c3c(c(O)c1C2=O)C[C@@](O)(C(=O)CO)C[C@@H]3O[C@H]1C[C@H](N)[C@H](O)[C@H](C)O1 [Doxorubicin] + Cc1cc2ncnn2cc1Nc1ncc2c(n1)n(C1CCOCC1)c(=O)n2C [AZD7648] (first compound max 1 µM, 7x7, partner max 10 µM) | 0.0288 | 0.124 | 0.0555 | 0.0551 | 0.0376 | 0.0256 | 0.0173 | 0.0494 | 0.0213 | 0.0715 | -0.128 | -0.0142 | 0.111 | 0.0887 | 0.0759 | 0.0368 | -0.024 | 0.0318 | -0.0255 | -0.0081
2 | COc1cccc(OCCCN)c1-c1cc(Nc2cnc(C#N)cn2)n[nH]1 [Prexasertib] + C=CCn1c(=O)c2cnc(Nc3ccc(N4CCN(C)CC4)cc3)nc2n1-c1cccc(C(C)(C)O)n1 [AZD1775] (first compound max 1 µM, partner max 1 µM) | 0.0129 | 0.0893 | -0.0243 | 0.036 | 0.0703 | -0.0401 | -0.0093 | 0.217 | 0.0748 | 0.0823 | -0.0136 | 0.0561 | 0.0644 | 0.0958 | 0.0534 | 0.0732 | -0.02 | 0.208 | 0.178 | 0.0313
3 | COc1cccc(OCCCN)c1-c1cc(Nc2cnc(C#N)cn2)n[nH]1 [Prexasertib] + CCc1c2c(nc3ccc(O)cc13)-c1cc3c(c(=O)n1C2)COC(=O)[C@]3(O)CC [SN-38] (first compound max 1 µM, 7x7, partner max 0.3 µM) | 0.0663 | 0.0686 | -0.129 | 0.0073 | -0.0289 | -0.124 | 0.0239 | 0.0028 | 0.0411 | -0.0221 | -0.0098 | 0.0269 | 0.0023 | -0.0004 | -0.0452 | 0.065 | 0.0578 | 0.12 | -0.0373 | -0.0304
4 | COc1cccc(OCCCN)c1-c1cc(Nc2cnc(C#N)cn2)n[nH]1 [Prexasertib] + CN(C)CCCOc1ccc(-c2ccc3ncc4c(c3c2)n(C2CCOCC2)c(=O)n4C)cn1 [AZD0156] (first compound max 1 µM, 7x7, partner max 1 µM) | 0.0778 | -0.0048 | -0.0246 | -0.0248 | -0.0346 | -0.061 | -0.0132 | -0.0024 | -0.0184 | 0.0053 | -0.0285 | 0.0017 | -0.0089 | 0.0022 | -0.0077 | -0.0008 | -0.0279 | 0.0061 | -0.0826 | -0.0116
5 | COc1cccc(OCCCN)c1-c1cc(Nc2cnc(C#N)cn2)n[nH]1 [Prexasertib] + C[C@@H]1COCCN1C2=NC(=NC(=C2)C3(CC3)[S@](=N)(=O)C)C4=C5C=CNC5=NC=C4 [AZD6738] (first compound max 1 µM, 7x7, partner max 10 µM) | 0.0485 | -0.006 | 0.0188 | -0.0051 | 0.0024 | -0.046 | -0.0309 | -0.0323 | -0.0254 | 0.0035 | -0.0473 | 0.011 | -0.0147 | -0.0023 | -0.0035 | 0.0085 | 0.0255 | 0.0178 | -0.0325 | -0.0233
6 | COc1cccc(OCCCN)c1-c1cc(Nc2cnc(C#N)cn2)n[nH]1 [Prexasertib] + Cc1cc2ncnn2cc1Nc1ncc2c(n1)n(C1CCOCC1)c(=O)n2C [AZD7648] (first compound max 1 µM, 7x7, partner max 10 µM) | 0.0127 | -0.0936 | -0.0326 | -0.0094 | -0.0281 | -0.0891 | -0.0095 | -0.0355 | -0.0037 | 0.0225 | -0.0211 | -0.0331 | -0.0314 | 0.0256 | 0.0271 | -0.0283 | -0.0074 | 0.0364 | -0.0178 | -0.088
7 | COc1cccc(OCCCN)c1-c1cc(Nc2cnc(C#N)cn2)n[nH]1 [Prexasertib] + O=C(c1cc(Cc2n[nH]c(=O)c3ccccc23)ccc1F)N1CCN(C(=O)C2CC2)CC1 [Olaparib] (first compound max 1 µM, 7x7, partner max 10 µM) | 0.0146 | 0.0124 | -0.0639 | -0.0224 | 0.0296 | -0.0947 | -0.0164 | -0.0789 | -0.053 | -0.0493 | -0.0229 | -0.103 | -0.0097 | -0.0088 | -0.0494 | -0.0444 | -0.049 | 0.0186 | -0.0643 | -0.0984
8 | COc1cc2c(cc1OCCCCCOc1cc3c(cc1OC)C(=O)N1C=C(C)C[C@H]1C=N3)N=C[C@@H]1CC(C)=CN1C2=O [SG3199] + O=C(c1cc(Cc2n[nH]c(=O)c3ccccc23)ccc1F)N1CCN(C(=O)C2CC2)CC1 [Olaparib] (first compound max 0.001 µM, 7x7, partner max 10 µM) | -0.0398 | -0.0213 | -0.0252 | 0.0049 | -0.0327 | -0.0288 | -0.0266 | -0.0595 | -0.0387 | -0.0351 | -0.119 | -0.0225 | -0.027 | -0.0205 | -0.027 | -0.0453 | -0.0461 | -0.0418 | -0.037 | -0.0661
9 | CCc1c2c(nc3ccc(O)cc13)-c1cc3c(c(=O)n1C2)COC(=O)[C@]3(O)CC [SN-38] + CN(C)CCCOc1ccc(-c2ccc3ncc4c(c3c2)n(C2CCOCC2)c(=O)n4C)cn1 [AZD0156] (first compound max 0.3 µM, 7x7, partner max 1 µM) | 0.0147 | 0.0218 | -0.0469 | 0.0493 | 0.0443 | -0.027 | 0.0626 | -0.0393 | 0.0143 | 0.0163 | -0.0773 | 0.0163 | 0.0712 | 0.116 | 0.0279 | -0.0329 | -0.0124 | -0.0151 | -0.0104 | -0.12
10 | C[C@@H](c1ccc2nccn2c1)n1nnc2ncc(-c3cnn(C)c3)nc21 [Savolitinib] + CC1(C)CCC(CN2CCN(c3ccc(C(=O)NS(=O)(=O)c4ccc(NCC5CCOCC5)c([N+](=O)[O-])c4)c(Oc4cnc5[nH]ccc5c4)c3)CC2)=C(c2ccc(Cl)cc2)C1 [Venetoclax] (first compound max 1 µM, 7x7, partner max 1 µM) | 0.0131 | -0.0456 | -0.0775 | 0.0025 | 0.0006 | -0.0303 | -0.09 | -0.0463 | -0.0448 | -0.0059 | -0.0225 | -0.0394 | -0.0977 | -0.0453 | -0.0341 | -0.0598 | -0.0374 | 0.011 | -0.0321 | -0.0732
11 | C[C@@H](c1ccc2nccn2c1)n1nnc2ncc(-c3cnn(C)c3)nc21 [Savolitinib] + Cc1c2c(nn1C)CSCc1cc(n(C)n1)CSc1cc(c3ccccc3c1)OCCCc1c(C(=O)O)n(C)c3c-2c(Cl)ccc13 [AZD5991] (first compound max 1 µM, 7x7, partner max 1 µM) | -0.0755 | -0.0125 | -0.0714 | -0.0112 | -0.0082 | 0.0064 | -0.0434 | 0.0527 | -0.0683 | 0.0219 | 0.0448 | -0.0528 | -0.0269 | 0.0005 | -0.0334 | -0.0177 | -0.0297 | -0.0291 | -0.0289 | -0.0519
12 | Cn1cnc2c(F)c(Nc3ccc(Br)cc3Cl)c(C(=O)NOCCO)cc21 [Selumetinib] + C=CCn1c(=O)c2cnc(Nc3ccc(N4CCN(C)CC4)cc3)nc2n1-c1cccc(C(C)(C)O)n1 [AZD1775] (first compound max 10 µM, partner max 1 µM) | -0.0351 | 0.0433 | -0.0275 | -0.0414 | -0.0782 | -0.0367 | 0.014 | -0.0654 | -0.0923 | 0.0006 | -0.0697 | -0.0826 | 0.0041 | -0.0037 | -0.0154 | -0.0128 | -0.066 | -0.056 | -0.0499 | -0.0203
13 | Cn1cnc2c(F)c(Nc3ccc(Br)cc3Cl)c(C(=O)NOCCO)cc21 [Selumetinib] + CC(C)n1c(=O)n(C)c2cnc3cc(F)c(-c4ccc(OCCCN5CCCCC5)nc4)cc3c21 [AZD1390] (first compound max 10 µM, 7x7, partner max 0.3 µM) | -0.0191 | 0.0158 | -0.042 | -0.0306 | -0.0444 | -0.0227 | -0.0484 | -0.0376 | -0.0476 | -0.0094 | -0.0426 | -0.041 | 0.0267 | -0.0033 | -0.0402 | -0.0405 | -0.0387 | -0.0162 | -0.0375 | 0.0162
14 | Cn1cnc2c(F)c(Nc3ccc(Br)cc3Cl)c(C(=O)NOCCO)cc21 [Selumetinib] + CCN(CCO)CCCOc1ccc2c(Nc3cc(CC(=O)Nc4cccc(F)c4)[nH]n3)ncnc2c1 [AZD2811] (first compound max 10 µM, 7x7, partner max 1 µM) | -0.0166 | 0.0053 | -0.0705 | 0.0359 | -0.0412 | -0.0731 | 0.0445 | 0.0103 | -0.0745 | -0.0243 | -0.0451 | -0.0657 | 0.0214 | -0.0129 | -0.0202 | -0.0016 | -0.0501 | -0.0072 | -0.033 | -0.0533
15 | Cn1cnc2c(F)c(Nc3ccc(Br)cc3Cl)c(C(=O)NOCCO)cc21 [Selumetinib] + C[C@@H]1COCCN1C2=NC(=NC(=C2)C3(CC3)[S@](=N)(=O)C)C4=C5C=CNC5=NC=C4 [AZD6738] (first compound max 10 µM, 7x7, partner max 10 µM) | -0.0395 | 0.0032 | 0.0241 | 0.0491 | -0.0395 | -0.0779 | 0.0105 | -0.0302 | -0.0704 | -0.0377 | -0.0522 | -0.0802 | 0.074 | -0.03 | -0.0319 | 0.0877 | -0.0594 | -0.041 | -0.056 | 0.017
